Source: PubChem BioAssay AID1963845 (Molecular Pharmacology Branch, DTP, NCI, 2024)

System: 429239-143-T-J1-PDC complex spheroid viability
Assay: Anticancer human tumor 429239-143-T-J1-PDC patient-derived small cell lung carcinoma cell line growth inhibition [POLQ]
Conditions: for IC50: curve of first compound; for viability, T/C: stronger effect = lower value; active means viability on the fitted dose curve at most 10% of control; inactive means the rest
Outline: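 Patient-derived tumour cells were co-cultured with HUVEC and mesenchymal stem cells as multicellular spheroids at 37 °C. They were treated with POLQ inhibitors (novobiocin, ART-558, RP6685) alone or combined with other agents. Top concentrations were at or near clinical Cmax (otherwise 10 microM; SN-38 at 1 microM), decreasing in half-log steps.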

[1] = second compound 0.0316 µM, first compound 0.0316 µM
[2] = second compound 0.0316 µM, first compound 0.1 µM
[3] = second compound 0.0316 µM, first compound 0.316 µM
[4] = second compound 0.0316 µM, first compound 1 µM
[5] = second compound 0.0316 µM, first compound 3.16 µM
[6] = second compound 0.0316 µM, first compound 10 µM
[7] = second compound 0.1 µM, first compound 0.0316 µM
[8] = second compound 0.1 µM, first compound 0.1 µM
[9] = second compound 0.1 µM, first compound 0.316 µM
[10] = second compound 0.1 µM, first compound 1 µM
[11] = second compound 0.1 µM, first compound 3.16 µM
[12] = second compound 0.1 µM, first compound 10 µM
[13] = second compound 0.316 µM, first compound 0.0316 µM
[14] = second compound 0.316 µM, first compound 0.1 µM
[15] = second compound 0.316 µM, first compound 0.316 µM
[16] = second compound 0.316 µM, first compound 1 µM
[17] = second compound 0.316 µM, first compound 3.16 µM
[18] = second compound 0.316 µM, first compound 10 µM
[19] = second compound 1 µM, first compound 0.0316 µM
[20] = second compound 1 µM, first compound 0.1 µM
[21] = second compound 1 µM, first compound 0.316 µM
[22] = second compound 1 µM, first compound 1 µM
[23] = second compound 1 µM, first compound 3.16 µM
[24] = second compound 1 µM, first compound 10 µM
[25] = second compound 3.16 µM, first compound 0.0316 µM
[26] = second compound 3.16 µM, first compound 0.1 µM
[27] = second compound 3.16 µM, first compound 0.316 µM
[28] = second compound 3.16 µM, first compound 1 µM
[29] = second compound 3.16 µM, first compound 3.16 µM
[30] = second compound 3.16 µM, first compound 10 µM
[31] = second compound 10 µM, first compound 0.0316 µM
[32] = second compound 10 µM, first compound 0.1 µM
[33] = second compound 10 µM, first compound 0.316 µM
[34] = second compound 10 µM, first compound 1 µM
[35] = second compound 10 µM, first compound 3.16 µM
[36] = second compound 10 µM, first compound 10 µM
[37] = second compound 0.0316 µM, first compound 0.00316 µM
[38] = second compound 0.0316 µM, first compound 0.01 µM
[39] = second compound 0.1 µM, first compound 0.00316 µM
[40] = second compound 0.1 µM, first compound 0.01 µM
[41] = second compound 0.316 µM, first compound 0.00316 µM
[42] = second compound 0.316 µM, first compound 0.01 µM
[43] = second compound 1 µM, first compound 0.00316 µM
[44] = second compound 1 µM, first compound 0.01 µM
[45] = second compound 3.16 µM, first compound 0.00316 µM
[46] = second compound 3.16 µM, first compound 0.01 µM
[47] = second compound 10 µM, first compound 0.00316 µM
[48] = second compound 10 µM, first compound 0.01 µM
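Further: luminescence signal used as surrogate measure of viable cells; spheroids exposed to compounds for seven days before readout.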
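Wherever viability, T/C is given: 100% = DMSO vehicle control viability as luminescence relative to vehicle.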

CC1COCCN1c1cc(C2(O)CC3CCC(C2)O3)c2cnn(-c3ccn[nH]3)c2n1 (stereo not drawn) + Cc1cccc(N(C)C(=O)C2C(O)CCN2c2nc(C)cc(C(F)(F)F)c2C#N)c1
inactive: viability, T/C [1] 76.8% | viability, T/C [2] 35.8% | viability, T/C [3] 17.6% | viability, T/C [7] 69.6% | viability, T/C [8] 39.6% | viability, T/C [9] 19.3% | viability, T/C [10] 11.8% | viability, T/C [13] 62.1% | viability, T/C [14] 41.3% | viability, T/C [15] 16.2% | viability, T/C [19] 73.8% | viability, T/C [20] 40% | viability, T/C [21] 17.7% | viability, T/C [25] 60.1% | viability, T/C [26] 31.8% | viability, T/C [27] 17.9% | viability, T/C [28] 10.3% | viability, T/C [31] 63% | viability, T/C [32] 41.5% | viability, T/C [33] 18.5% | viability, T/C [34] 10.8%
63 nM: IC50 (second compound 10 µM)
67.2 nM: IC50 (second compound 0.0316 µM)
47.8 nM: IC50 (second compound 3.16 µM)
61.7 nM: IC50 (second compound 0.316 µM)
active: viability, T/C [4] 10.3% | viability, T/C [5] 7.41% | viability, T/C [6] 5.4% | viability, T/C [11] 7.54% | viability, T/C [12] 5.93% | viability, T/C [16] 9.23% | viability, T/C [17] 9.02% | viability, T/C [18] 5.86% | viability, T/C [22] 9.58% | viability, T/C [23] 8.48% | viability, T/C [24] 5.82% | viability, T/C [29] 8.26% | viability, T/C [30] 6.08% | viability, T/C [35] 9.19% | viability, T/C [36] 5.28%
66.8 nM: IC50 (second compound 0.1 µM)
71 nM: IC50 (second compound 1 µM)

COc1cc2cc(C(=O)CCC(=O)O)sc2cc1OC + COC1C(OC(N)=O)C(O)C(Oc2ccc3c(O)c(NC(=O)c4ccc(O)c(CC=C(C)C)c4)c(=O)oc3c2C)OC1(C)C
inactive: viability, T/C [1] 113% | viability, T/C [2] 95.9% | viability, T/C [3] 112% | viability, T/C [4] 105% | viability, T/C [5] 92.1% | viability, T/C [6] 92.4% | viability, T/C [7] 116% | viability, T/C [8] 104% | viability, T/C [9] 93.7% | viability, T/C [10] 100% | viability, T/C [11] 91.2% | viability, T/C [12] 92.6% | viability, T/C [13] 103% | viability, T/C [14] 99.3% | viability, T/C [15] 92.6% | viability, T/C [16] 107% | viability, T/C [17] 95.1% | viability, T/C [18] 90.2% | viability, T/C [19] 96.1% | viability, T/C [20] 91.1% | viability, T/C [21] 108% | viability, T/C [22] 90.9% | viability, T/C [23] 90.6% | viability, T/C [24] 102% | viability, T/C [25] 94.7% | viability, T/C [26] 112% | viability, T/C [27] 103% | viability, T/C [28] 89.4% | viability, T/C [29] 96% | viability, T/C [30] 101% | viability, T/C [31] 95.9% | viability, T/C [32] 91.7% | viability, T/C [33] 119% | viability, T/C [34] 96.6% | viability, T/C [35] 94.3% | viability, T/C [36] 95.7%
> 10000 nM: IC50 (second compound 0.0316 µM) | IC50 (second compound 0.1 µM) | IC50 (second compound 0.316 µM) | IC50 (second compound 1 µM) | IC50 (second compound 3.16 µM) | IC50 (second compound 10 µM)

COc1cccc(OCCCN)c1-c1cc(Nc2cnc(C#N)cn2)n[nH]1 + Cc1cccc(N(C)C(=O)C2C(O)CCN2c2nc(C)cc(C(F)(F)F)c2C#N)c1
227 nM: IC50 (second compound 10 µM)
377 nM: IC50 (second compound 0.0316 µM)
273 nM: IC50 (second compound 3.16 µM)
inactive: viability, T/C [37] 101% | viability, T/C [38] 110% | viability, T/C [1] 87.7% | viability, T/C [2] 73.1% | viability, T/C [3] 52.7% | viability, T/C [4] 39.3% | viability, T/C [39] 101% | viability, T/C [40] 106% | viability, T/C [7] 92.9% | viability, T/C [8] 72% | viability, T/C [9] 52.7% | viability, T/C [10] 36.7% | viability, T/C [41] 106% | viability, T/C [42] 108% | viability, T/C [13] 86.4% | viability, T/C [14] 67.2% | viability, T/C [15] 46.6% | viability, T/C [16] 32% | viability, T/C [43] 108% | viability, T/C [44] 105% | viability, T/C [19] 90.8% | viability, T/C [20] 68.1% | viability, T/C [21] 46.5% | viability, T/C [22] 33.1% | viability, T/C [45] 117% | viability, T/C [46] 108% | viability, T/C [25] 93.8% | viability, T/C [26] 65.4% | viability, T/C [27] 49.8% | viability, T/C [28] 34.9% | viability, T/C [47] 118% | viability, T/C [48] 92.1% | viability, T/C [31] 92.1% | viability, T/C [32] 66.4% | viability, T/C [33] 39.3% | viability, T/C [34] 27.7%
248 nM: IC50 (second compound 0.316 µM)
339 nM: IC50 (second compound 0.1 µM)
256 nM: IC50 (second compound 1 µM)

CCc1c2c(nc3ccc(O)cc13)-c1cc3c(c(=O)n1C2)COC(=O)[C@]3(O)CC + Cc1cccc(N(C)C(=O)C2C(O)CCN2c2nc(C)cc(C(F)(F)F)c2C#N)c1
inactive: viability, T/C [37] 16.9% | viability, T/C [38] 17.8% | viability, T/C [1] 16.1% | viability, T/C [2] 17.5% | viability, T/C [3] 13.3% | viability, T/C [39] 17.8% | viability, T/C [40] 18.5% | viability, T/C [7] 17.6% | viability, T/C [8] 19% | viability, T/C [9] 13.6% | viability, T/C [41] 16.2% | viability, T/C [42] 20.4% | viability, T/C [13] 16.4% | viability, T/C [14] 17.6% | viability, T/C [15] 14.1% | viability, T/C [43] 21.1% | viability, T/C [44] 16.7% | viability, T/C [19] 17.5% | viability, T/C [20] 16.5% | viability, T/C [21] 17.5% | viability, T/C [45] 19.9% | viability, T/C [46] 17.4% | viability, T/C [25] 21.6% | viability, T/C [26] 16.1% | viability, T/C [27] 14.9% | viability, T/C [47] 18.9% | viability, T/C [48] 17.5% | viability, T/C [31] 20.7% | viability, T/C [32] 17.5% | viability, T/C [33] 17.9%
< 3.16 nM: IC50 (second compound 0.0316 µM) | IC50 (second compound 0.1 µM) | IC50 (second compound 0.316 µM) | IC50 (second compound 1 µM) | IC50 (second compound 3.16 µM) | IC50 (second compound 10 µM)
active: viability, T/C [4] 5.41% | viability, T/C [10] 4.17% | viability, T/C [16] 6.26% | viability, T/C [22] 3.94% | viability, T/C [28] 5.15% | viability, T/C [34] 3.41%
